Test results reported in patent publication US20240158446A1, “CYCLIC COMPOUND HAVING SELECTIVE INHIBITORY ACTION ON KRAS OVER HRAS AND NRAS” (CHUGAI SEIYAKU KABUSHIKI KAISHA, priority 2021, published 2024).
Like-named read-outs stand apart in the source and are kept apart here.

Legend:
[1] = test system: human lung cancer strain NCI-H441;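 further: cell proliferation inhibition after four days measured by CellTiter-Glo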
[2] = molecular target: GDP-bound HRAS wild-type protein (Homo sapiens, UniProt P01112); experiment: Binding to HRAS by surface plasmon resonance (SPR), Single Cycle Kinetics; settings: for HRAS/KRAS (ratio of KD value for HRAS to KD value for KRAS): SPR, GDP-bound HRAS wild-type protein vs GDP-bound KRAS wild-type protein
Sequence of GDP-bound HRAS wild-type protein (P01112 whole entry): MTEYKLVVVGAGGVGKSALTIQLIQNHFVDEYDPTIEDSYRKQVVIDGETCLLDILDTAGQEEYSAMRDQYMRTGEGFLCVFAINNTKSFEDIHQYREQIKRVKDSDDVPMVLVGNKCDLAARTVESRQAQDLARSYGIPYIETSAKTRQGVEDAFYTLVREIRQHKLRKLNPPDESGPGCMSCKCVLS

[3] = molecular target: GDP-bound NRAS wild-type protein (Homo sapiens, UniProt P01111); experiment: Binding to NRAS by surface plasmon resonance (SPR), Single Cycle Kinetics; settings: for NRAS/KRAS (ratio of KD value for NRAS to KD value for KRAS): SPR, GDP-bound NRAS wild-type protein vs GDP-bound KRAS wild-type protein
Sequence of GDP-bound NRAS wild-type protein (P01111 whole entry): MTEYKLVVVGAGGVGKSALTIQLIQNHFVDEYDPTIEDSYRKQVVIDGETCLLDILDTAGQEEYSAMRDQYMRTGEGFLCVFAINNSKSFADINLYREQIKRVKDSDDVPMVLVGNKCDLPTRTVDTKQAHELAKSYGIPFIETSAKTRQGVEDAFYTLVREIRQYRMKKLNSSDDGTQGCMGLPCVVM

[4] = molecular target: GDP-bound KRAS wild-type protein (Homo sapiens, UniProt P01116); experiment: Binding to KRAS by surface plasmon resonance (SPR), Single Cycle Kinetics; settings: GDP-bound KRAS wild-type protein, read-out: KRAS KD
Sequence of GDP-bound KRAS wild-type protein (P01116 whole entry): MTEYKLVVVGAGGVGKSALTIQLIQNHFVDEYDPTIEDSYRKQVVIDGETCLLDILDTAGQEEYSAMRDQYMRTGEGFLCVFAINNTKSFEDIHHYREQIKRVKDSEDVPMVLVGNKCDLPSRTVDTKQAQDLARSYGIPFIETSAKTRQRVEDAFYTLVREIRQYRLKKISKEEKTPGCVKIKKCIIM

| Structure (SMILES) | IC50 [1] | Kd ([4]; SPR, Single Cycle Kinetics) | Kd ([4]; SPR, Single Cycle Kinetics, 1:1 binding model) | HRAS/KRAS (ratio of KD value for HRAS to KD value for KRAS) [2] | NRAS/KRAS (ratio of KD value for NRAS to KD value for KRAS) [3] | HRAS/KRAS (ratio of KD value with respect to GDP-bound HRAS wild-type protein to KD value with respect to KRAS) ([2]; SPR KD ratio HRAS/KRAS, class symbols) | NRAS/KRAS (ratio of KD value with respect to GDP-bound NRAS wild-type protein to KD value with respect to KRAS) ([3]; SPR KD ratio NRAS/KRAS, class symbols) | Kd ([4]; SPR Single Cycle Kinetics, 1:1 binding model) | HRAS/KRAS (ratio of KD value for HRAS to KD value for KRAS) ([2]; KD ratio class) | NRAS/KRAS (ratio of KD value for NRAS to KD value for KRAS) ([3]; KD ratio class) |
| --- | --- | --- | --- | --- | --- | --- | --- | --- | --- | --- |
| CCO[C@@H]1C[C@H]2C(=O)NC3(CCC3)C(=O)N(C)[C@@H](C3CCCC3)C(=O)N(C)[C@H](C(=O)N3CCOCC3)CC(=O)N(C)[C@@H](Cc3ccsc3)C(=O)N[C@@H]([C@@H](C)CC)C(=O)N(C)CC(=O)N(C)[C@H]3CCCCCN(C3=O)[C@@H](Cc3ccc(F)cc3)C(=O)N(C)CC(=O)N[C@@H](CCc3cc(F)c(C(F)(F)F)c(F)c3)C(=O)N2C1 [PP1184] | 91.9 nM | 0.16 nM |  | B (a compound having 3 or more and less than 10 is denoted as B) | B (a compound having 3 or more and less than 10 is denoted as B) |  |  |  |  |  |
| CCC[C@H]1C(=O)N[C@@H]([C@@H](C)CC)C(=O)N(C)CC(=O)N(C)[C@H]2C/C=C\CCN(C2=O)[C@@H](Cc2ccc(C(F)(F)F)cc2)C(=O)N(C)CC(=O)N[C@@H](CCc2ccc(C(F)(F)F)c(OC)c2)C(=O)N2C[C@H](OCC)C[C@H]2C(=O)N(C)C2(CCC2)C(=O)N(C)[C@@H](C(CC)CC)C(=O)N(C)[C@H](C(=O)N(C)C)CC(=O)N1C [PP2382] | 4.6 nM | 0.12 nM |  | A (a compound having 10 or more and less than 20 is denoted as A) | A (a compound having 10 or more and less than 20 is denoted as A) |  |  |  |  |  |
| CC[C@H](C)[C@@H]1NC(=O)[C@H](COC)N(C)C(=O)C[C@@H](C(=O)N2CCCCC2)N(C)C(=O)[C@H](C2CCCC2)N(C)C(=O)C2(CC(C)(C)C2)NC(=O)[C@@H]2C[C@@H](OC3CCC3)CN2C(=O)[C@H](CCc2cc(F)c(C(F)(F)F)c(F)c2)NC(=O)CN(C)C(=O)[C@H](Cc2ccc(C(F)(F)F)cc2)N2CC/C=C\C[C@@H](C2=O)N(C)C(=O)CN(C)C1=O [PP2664] | 19.8 nM |  |  |  |  | B (a compound having 3 or more and less than 10 is denoted as B) | A (a compound having 10 or more and less than 20 is denoted as A) | 0.37 nM |  |  |
| CCO[C@@H]1C[C@H]2C(=O)NC3(CCCCC3)C(=O)N(C)[C@@H](C3CCCC3)C(=O)N(C)[C@H](C(=O)N(C)C)CC(=O)N(C)[C@@H](CC)C(=O)N[C@@H]([C@@H](C)CC)C(=O)N(C)CC(=O)N(C)[C@H]3C/C=C\CCN(C3=O)[C@@H](Cc3ccc(C(F)(F)F)cc3)C(=O)N(C)CC(=O)N[C@@H](CCc3cc(F)c(C(F)(F)F)c(F)c3)C(=O)N2C1 [PP1277] | 79.8 nM |  | 0.25 nM |  |  |  |  |  | A (a compound having 10 or more and less than 20 is denoted as A) | A (a compound having 10 or more and less than 20 is denoted as A) |

The next lines start with results.

| IC50 [1] | Kd ([4]; SPR, Single Cycle Kinetics) | Kd ([4]; SPR, Single Cycle Kinetics, 1:1 binding model) | Structure (SMILES) | HRAS/KRAS (ratio of KD value for HRAS to KD value for KRAS) [2] | NRAS/KRAS (ratio of KD value for NRAS to KD value for KRAS) [3] | HRAS/KRAS (ratio of KD value with respect to GDP-bound HRAS wild-type protein to KD value with respect to KRAS) ([2]; SPR KD ratio HRAS/KRAS, class symbols) | NRAS/KRAS (ratio of KD value with respect to GDP-bound NRAS wild-type protein to KD value with respect to KRAS) ([3]; SPR KD ratio NRAS/KRAS, class symbols) | Kd ([4]; SPR Single Cycle Kinetics, 1:1 binding model) | HRAS/KRAS (ratio of KD value for HRAS to KD value for KRAS) ([2]; KD ratio class) | NRAS/KRAS (ratio of KD value for NRAS to KD value for KRAS) ([3]; KD ratio class) |
| --- | --- | --- | --- | --- | --- | --- | --- | --- | --- | --- |
| 9.8 nM | 0.33 nM |  | CCO[C@H](C)[C@@H]1NC(=O)[C@H](CC(C)C)N(C)C(=O)C[C@@H](C(=O)N(C)CC)N(C)C(=O)[C@H](C2CCCC2)N(C)C(=O)C2(CC(C)(C)C2)NC(=O)[C@@H]2C[C@H](C)CN2C(=O)[C@H](CCc2cc(F)c(C(F)(F)F)c(F)c2)NC(=O)CN(C)C(=O)[C@H](Cc2ccc(C)cc2)N2CC/C=C\C[C@@H](C2=O)N(C)C(=O)CN(C)C1=O [PP2414] | A (a compound having 10 or more and less than 20 is denoted as A) | A (a compound having 10 or more and less than 20 is denoted as A) |  |  |  |  |  |
| 170 nM | 3.9 nM |  | CCC(CC)[C@H]1C(=O)N(C)[C@H](C(=O)N(C)C)CC(=O)N(C)[C@@H](COC)C(=O)N[C@@H]([C@@H](C)CC)C(=O)N(C)CC(=O)N(C)[C@H]2C/C=C\CCN(C2=O)[C@@H](CC2CCCCC2)C(=O)N(C)CC(=O)N[C@@H](CCc2ccc(C(F)(F)F)c(OC)c2)C(=O)N2C[C@@H](C)C[C@H]2C(=O)NC2(CC(C)(C)C2)C(=O)N1C [PP2466] | A (a compound having 10 or more and less than 20 is denoted as A) | A (a compound having 10 or more and less than 20 is denoted as A) |  |  |  |  |  |
